Experimental data published in ChEMBL document CHEMBL4483862, “Open-source discovery of chemical leads for next-generation chemoprotective antimalarials” (2018).

Tested on: Plasmodium berghei
Assay: Luciferase/luciferin-expressing antifolate-resistant parasites were used to infect a culture of HepG2 cells that were pre-incubated with compounds. Infected hepatocytes emit light due to the luciferase reaction. Assay results are presented as the percent inhibition of light emission compared to control. […]
Format: functional
Conditions: sporozoite; for IC50: read-out: LUCIFERASE INFECTION ASSAY - IC50; for IC90: read-out: LUCIFERASE INFECTION ASSAY - IC90

SMILES | IC50 [µM] | IC90 [µM]
CCOC(=O)c1ccc(-n2sccc2=O)cc1 | > 13.2 | > 13.2
Cc1c(S(=O)(=O)c2ccc(Cl)cc2)csc1S(=O)(=O)N1CCOCC1 | > 7.82 | > 7.82
CSc1nccc(-c2sc(SC)c3c2CCCC3=O)n1 | > 10.2 | > 10.2
CC1(C)CC(=O)c2cnc(SCC(=O)Nc3ccc(F)cc3F)nc2C1 | > 8.74 | > 8.74
CN1c2ccsc2C(=O)/C(=C/Nc2cccc(Cl)c2)S1(=O)=O | > 9.3 | > 9.3
Cc1cc2ncc(-c3ccnc(SCC(=O)c4ccc(Cl)cc4)n3)c(C)n2n1 | > 8.05 | > 8.05
O=S(=O)(Oc1ccc(Cl)cc1)c1cc(S(=O)(=O)c2ccccc2)cs1 | > 7.95 | > 7.95
CSc1sc(C(N)=S)c(C)c1C(C)=O | > 13.4 | > 13.4
CSc1cc(-c2sc3scc(C)c3c2C)n[nH]1 | > 11.8 | > 11.8
O=C(COc1ccccc1SCc1ccc(Cl)cc1)NNC(=O)c1cccc(C(F)(F)F)c1 | > 6.67 | > 6.67
N#C/C(=C\Nc1ccc(OC(F)(F)F)cc1)S(=O)(=O)c1ccc(Cl)cc1 | > 8.19 | > 8.19
O=C(NCc1ccc(S(=O)(=O)N2CCOCC2)s1)c1ccc(Cl)cc1 | > 8.23 | > 8.23
CC1(C)CC(=O)C=C(SCC(=O)Nc2cccc(C(F)(F)F)c2)S1 | > 8.79 | > 8.79
Cc1ccc(S(=O)(=O)CCN2C(=O)CSC2=O)cc1 | > 11 | > 11
O=C(COc1ccccc1CSc1ccc(Cl)cc1)N/N=C/c1ccccc1Cl | > 7.41 | > 7.41
CO/N=C1\CC(C)(C)Cc2c(-c3ccn(C(=O)Nc4ccc(Cl)cc4)n3)sc(SC)c21 | > 6.95 | > 6.95
Cc1cc2ncc(-c3ccnc(SCC(=O)Nc4cccc(C(F)(F)F)c4)n3)c(C)n2n1 | > 7.2 | > 7.2
COC(=O)C1=C(Nc2ccc(OS(=O)(=O)c3ccc(F)cc3F)cc2)CSC1 | > 7.72 | > 7.72
C=CCNC(=O)CSC1=CC(=O)CC(c2ccc(Cl)cc2)S1 (stereo unspecified) | > 9.32 | > 9.32
CC(=O)c1sc2sc(C#N)c(C)c2c1C | > 14 | > 14
CCOC(=O)c1sc(SC)c2c1CC(c1ccccc1)CC2=O (stereo unspecified) | > 9.52 | > 9.52

SMILES | IC50 [µM] | IC90 [µM]
C=S(=O)(NC(=O)c1ccc(-c2cc(C(F)(F)F)nn2C)s1)c1ccc(C)cc1 (stereo unspecified) | > 7.72 | > 7.72
COc1ccc(CSc2nnc(CSc3cccs3)n2C)cc1 | > 9.08 | > 9.08
CSc1sc(C(=O)N2CCOCC2)c2c1S(=O)(=O)N(C)c1ccccc1-2 | > 8.04 | > 8.04
CSc1sc(-c2ccnc(SCc3cccc(F)c3)n2)c2c1C(=O)CCC2 | > 7.92 | > 7.92
CSc1nccc(-c2sc(SC)c3c2CC(C)(C)CC3=O)n1 | > 9.41 | > 9.41
CSc1nnc(-c2csc(S(=O)(=O)Oc3cc(Cl)cc(Cl)c3)c2)n1C | > 7.56 | > 7.56
CSc1sc(Br)c2c1/C(=N\O)CC(C)(C)C2 | > 10.3 | > 10.3
CO/N=C1\CC(C)(C)Cc2c(-c3ccn(S(=O)(=O)c4ccccc4Cl)n3)sc(SC)c21 | > 6.65 | > 6.65
C=Cc1c(S(C)(=O)=O)sc(C(N)=O)c1C | > 13.5 | > 13.5
Cc1nn(Cc2nnc(SCC(=O)c3ccc(Cl)cc3)n2C)c(C)c1[N+](=O)[O-] | > 7.84 | > 7.84
CSc1nccc(-c2ccc(S(=O)(=O)n3nc(C)c([N+](=O)[O-])c3C)s2)n1 | > 8.02 | > 8.02
CSc1nnc(-c2csc(S(=O)(=O)Nc3ccccc3Cl)c2)n1C | > 8.23 | > 8.23
CSc1sc(C(=O)Nc2ccc(Cl)cc2)c2c1S(=O)(=O)N(C)c1ccccc1-2 | > 7.32 | > 7.32
Cc1ncc(S(=O)(=O)Cc2ccco2)c(N)n1 | > 13 | > 13
CC1(C)CC(=O)C=C(SCCS(=O)(=O)c2ccc(Cl)cc2)S1 | > 8.75 | > 8.75
COC(=O)c1sc(SC)c2c1CC(C)(C)C/C2=N\O | > 11 | > 11
Cc1csc2sc(/C=N/Cc3cccs3)c(C)c12 | > 11.3 | > 11.3
CCOC(=O)c1sc(S(=O)(=O)Cc2ccccc2)c2c1CC(C)(C)CC2=O | > 8.12 | > 8.12
O=C1C=C(SCC(=O)c2ccc([N+](=O)[O-])cc2)SC(c2ccccc2Cl)C1 (stereo unspecified) | > 7.86 | > 7.86
CN1c2ccsc2C(=O)/C(=C\Nc2ccccc2Cl)S1(=O)=O | > 9.3 | > 9.3
CSC1=CC(=O)CC(C)(C)S1 | > 17.5 | > 17.5

SMILES | IC50 [µM] | IC90 [µM]
N#CC(=N)C(C#N)NCc1ccccc1Sc1ccc(Cl)cc1 (stereo unspecified) | > 9.68 | > 9.68
CNc1ccc(CSc2ccc(C(F)(F)F)cn2)cc1C(F)(F)F | > 9.01 | > 9.01
CO/N=C1\CCCc2c(C(=O)NNS(=O)(=O)c3ccccc3Cl)sc(SC)c21 | > 7.17 | > 7.17
CSc1ncc2c(n1)CC(C)(C)C/C2=N\OC(=O)c1cccc(C(F)(F)F)c1 | > 8.06 | > 8.06
COC(=O)C1=C(Nc2ccc(OS(=O)(=O)c3ccc(Cl)cc3)cc2)CSC1 | > 7.75 | > 7.75
Cn1nc(-c2ccc(S(=O)(=O)Oc3cccc([N+](=O)[O-])c3)s2)cc1C(F)(F)F | > 7.61 | > 7.61
COC(=O)c1sccc1N/N=C(\C#N)S(=O)(=O)c1ccc(Cl)cc1 | > 8.6 | > 8.6
CN(C)n1cccc1/C=C(\C#N)S(C)(=O)=O | > 13.8 | > 13.8
CC(C)(C)c1cc(-c2nccs2)ccc1/C=N/O | > 12.7 | > 12.7
O=S(=O)(Oc1cccc(C(F)(F)F)c1)c1cc(S(=O)(=O)c2ccccc2)cs1 | > 7.36 | > 7.36
CCOC(=O)c1sc(N2CCCC2)c2c1CC(C)(C)CC2=O | > 10.3 | > 10.3
CCOC(=O)c1sc(N(NC(=O)c2cc(C(F)(F)F)cc(C(F)(F)F)c2)C(=O)c2cc(C(F)(F)F)cc(C(F)(F)F)c2)c2c1CC(C)(C)CC2=O | > 4.33 | > 4.33
CSc1sc(-c2ccnc(SCC(=O)c3ccc(Cl)cc3)n2)c2c1C(=O)CCC2 | > 7.16 | > 7.16
Cc1nn(S(=O)(=O)c2ccc(-c3cc(C(F)(F)F)n(C)n3)s2)c(C)c1Br | > 7.03 | > 7.03
CSc1sc(-c2nc(C(C)(C)C)cs2)c(C)c1C(C)=O | > 10.1 | > 10.1
Cc1cc(NNC(=O)c2ccccc2Cl)nc2c1c(-c1cccs1)nn2C | > 8.29 | > 8.29
Cc1nn(Cc2nnc(SCc3cccc(C(F)(F)F)c3)o2)c(C)c1Br | > 7.38 | > 7.38
CCOC(=O)c1csc(-c2sc(SC)c(C(C)=O)c2C)n1 | > 9.66 | > 9.66
CC(C)c1ccc(NC(=O)CSc2ncc3c(n2)CC(C)(C)CC3=O)cc1 | > 8.6 | > 8.6
CC(C)(C)c1csc(-c2ccc(/C=N/OC(=O)Nc3ccc(Cl)cc3)cc2)n1 | > 7.97 | > 7.97
O=C(COc1ccccc1SCc1ccc(Cl)cc1)NNC(=O)c1ccc(Cl)cc1 | > 7.15 | > 7.15
